Test results published in patent publication US7435823B2, “Compounds and methods of use” (Amgen Inc., priority 2004, dated 2008).
pIC50: −log10 of the molar value.

System: not given
Assay: not given
Conditions: not given

Which melting point does the source give for `CCNC(=O)Nc1ccc2c(F)c(Oc3ccnc4cc(OCCCN5CCOCC5)c(OC)cc34)ccc2c1` [Example 111] here?
Its melting point is 193.5 to 196.4 °C.

System: Human Umbilical Vein Endothelial cells
Assay: HUVEC proliferation assay, VEGF-stimulated
Type: cell-based
Conditions: 72 h, read-out: inhibition of VEGF-stimulated HUVEC proliferation
Description: HUVEC Proliferation Assay
Human Umbilical Vein Endothelial cells are purchased from Clonetics, Inc., as cryopreserved cells harvested from a pool of donors. These cells, at passage 1, are thawed and expanded in EBM-2 complete medium, until passage 2 or 3. The cells are trypsinized, washed in DMEM+10% FBS+antibiotics, and spun at 1000 rpm for 10 min. Prior to centrifugation of the cells, a small amount is collected for a cell count. After centrifugation, the medium is discarded, and the cells are resuspended in the appropriate volume of DMEM+10% FBS+antibiotics to achieve a concentration of 3×10^5 cells/mL. Another cell count is performed to confirm the cell concentration. The cells are diluted to 3×10^4 cells/mL in DMEM+10% FBS+antibiotics, and 100 μL of cells are added to a 96-well plate. The cells are incubated at 37° C. for 22 h.
Prior to the completion of the incubation period, compound dilutions are prepared. Five-point, five-fold serial dilutions are prepared in DMSO, at concentrations 400-fold greater than the final concentrations desired. 2.5 μL of each compound dilution are diluted further in a total of 1 mL DMEM+10% FBS+antibiotics (400× dilution). Medium containing 0.25% DMSO is also prepared for the 0 μM compound sample. At the 22 h timepoint, the medium is removed from the cells, and 100 μL of each compound dilution is added. The cells are incubated at 37° C. for 2-3 h.
During the compound pre-incubation period, the growth factors are diluted to the appropriate concentrations. Solutions of DMEM+10% FBS+antibiotics, containing either VEGF or bFGF at the following concentrations: 50, 10, 2, 0.4, 0.08, and 0 ng/mL are prepared. For the compound-treated cells, solutions of VEGF at 550 ng/mL or bFGF at 220 ng/mL for 50 ng/mL or 20 ng/mL final concentrations, respectively, are prepared since 10 μL of each will be added to the cells (110 μL final volume). At the appropriate time after adding the compounds, the growth factors are added. VEGF is added to one set of plates, while bFGF is added to another set of plates. For the growth factor control curves, the media on wells B4-G6 of plates 1 and 2 are replaced with media containing VEGF or bFGF at the varying concentrations (50-0 ng/mL). The cells are incubated at 37° C. for an additional 72 h.
At the completion of the 72 h incubation period, the medium is removed, and the cells are washed twice with PBS. After the second wash with PBS, the plates are tapped gently to remove excess PBS, and the cells are placed at −70° C. for at least 30 min. The cells are thawed and analyzed using the CyQuant fluorescent dye (Molecular Probes C-7026), following the manufacturer's recommendations. The plates are read on a Victor/Wallac 1420 workstation at 485 nm/530 nm (excitation/emission). Raw data are collected and analyzed using a 4-parameter fit equation in XLFit. IC50 values are then determined.

With `COc1cc2nccc(Oc3ccc4c(C(=O)Nc5ccc(Cl)cc5)cccc4c3)c2cc1OC` [Example 114, 6-(6,7-Dimethoxy-quinolin-4-yloxy)-naphthalene-1-carboxylic acid(4-chloro-phenyl)-amide] as the compound, how does the pIC50 read?
Its pIC50 is greater than 6.30.

Same assay, conditions: VEGF-stimulated, 72 h, read-out: inhibition of VEGF-stimulated HUVEC proliferation

With `COc1cc2nccc(Oc3ccc4c(C(=O)Nc5ccc(Cl)c(C(F)(F)F)c5)cccc4c3)c2cc1OC` [Example 117, 6-(6,7-dimethoxy-quinolin-4-yloxy)-naphthalene-1-carboxylix acid (4-chloro-3-trifluoromethyl-phenyl)-amide] as the compound, how does the pIC50 read?
The pIC50 was greater than 6.30.

With `COc1cc2nccc(Oc3ccc4c(NC(=O)c5ccccc5F)cccc4c3)c2cc1OC` [Example 120, N-[6-(6,7-dimethoxy-quinolin-4-yloxy)-naphthalen-1-yl]-2-fluoro-benzamide] as the compound, how does the pIC50 read?
The pIC50 was greater than 6.30.

With `COc1cc2nccc(Oc3ccc4c(C(=O)Nc5ccc(C(F)(F)F)cc5)cccc4c3)c2cc1OC` [Example 115, 6-(6,7-dimethoxy-quinolin-4-yloxy)-naphthalene-1-carboxylix acid (4-trifluoromethyl-phenyl)-amide] as the compound, how does the pIC50 read?
Its pIC50 is greater than 6.30.

With `COc1cc2nccc(Oc3ccc4c(NC(=O)c5ccc(Cl)cc5)cccc4c3)c2cc1OC` [Example 121, N-[6-(6,7-Dimethoxy-quinolin-4-yloxy)-naphthalen-1-yl]-4-chloro-benzamide] as the compound, how does the pIC50 read?
The pIC50 was greater than 6.30.

With `COc1cc2nccc(Oc3ccc4c(C(=O)Nc5cccc(C(F)(F)F)c5)cccc4c3)c2cc1OC` [Example 116, 6-(6,7-dimethoxy-quinolin-4-yloxy)-naphthalene-1-carboxylix acid (3-trifluoromethyl-phenyl)-amide] as the compound, how does the pIC50 read?
The pIC50 was greater than 6.30.

System: Human peripheral blood lymphocytes
Assay: Human mixed lymphocyte reaction (huMLR)
Type: cell-based
Conditions: 3H-thymidine incorporation, 6 days, read-out: IC50, inhibition of T-cell activation
Description: Human Mixed Lymphocyte Reaction (huMLR):
The purpose of this assay is to test the potency of T cell activation inhibitors in an in vitro model of allogeneic T cell stimulation. Human peripheral blood lymphocytes (hPBL; 2×10^5/well) are incubated with mitomycin C-treated B lymphoblastoid cells (JY cell line; 1×10^5/well) as allogeneic stimulators in the presence or absence of dilutions of potential inhibitor compound in 96-well round-bottom tissue culture plates. These cultures are incubated at 37° C. in 5% CO2 for 6 days total. The proliferative response of the hPBL is measured by ^3H-thymidine incorporation overnight between days 5 and 6 after initiation of culture. Cells are harvested onto glass fiber filters and ^3H-thymidine incorporation into DNA is analyzed by liquid scintillation counter.

With `COc1cc2nccc(Oc3ccc4c(C(=O)Nc5cc(C(C)(C)C)[nH]n5)cccc4c3)c2cc1OC` [Example 589, 6-((6,7-bis(methoxy)-4-quinolinyl)oxy)-N-(5-(1,1-dimethylethyl)-1H-pyrazol-3-yl)-1-naphthalenecarboxamide] as the compound, how does the pIC50 read?
Its pIC50 is greater than 7.00.

With `COc1cc2c(Oc3ccc4c(C(=O)Nc5ccc(Cl)cc5)cccc4c3F)ccnc2cc1OCCCN1CCOCC1` [Example 816] as the compound, how does the pIC50 read?
The pIC50 was greater than 7.00.

With `COc1cc2nccc(Oc3ccc4c(C(=O)Nc5cc(C(C)(C)C)on5)cccc4c3)c2cc1OC` [Example 583, 6-((6,7-bis(methoxy)-4-quinolinyl)oxy)-N-(5-(1,1-dimethylethyl)-3-isoxazolyl)-1-naphthalenecarboxamide] as the compound, how does the pIC50 read?
The pIC50 was greater than 7.00.

With `COc1cc2c(Oc3ccc4c(C(=O)Nc5cc(C(C)(C)C)[nH]n5)cccc4c3)ccnc2cc1OCCCN1CCOCC1` [Example 325, N-(5-(1,1-dimethylethyl)-1H-pyrazol-3-yl)-6-((6-(methoxy)-7-((3-(4-morpholinyl)propyl)oxy)-4-quinolinyl)oxy)-1-naphthalenecarboxamide] as the compound, how does the pIC50 read?
The pIC50 was greater than 7.00.

With `COc1cc2c(Oc3ccc4c(C(=O)Nc5cc(C(C)(C)C)on5)cccc4c3)ncnc2cc1OCCCN1CCCCC1` [Example 732, N-(5-(1,1-dimethylethyl)-3-isoxazolyl)-6-((6-(methoxy)-7-((3-(1-piperidinyl)propyl)oxy)-4-quinazolinyl)oxy)-1-naphthalenecarboxamide] as the compound, how does the pIC50 read?
Its pIC50 is greater than 7.00.

With `COc1cc2nccc(Oc3ccc4c(C(=O)Nc5cc(C(F)(F)F)ccn5)cccc4c3)c2cc1OC` [Example 657, 6-((6,7-bis(methoxy)-4-quinolinyl)oxy)-N-(4-(trifluoromethyl)-2-pyridinyl)-1-naphthalenecarboxamide] as the compound, how does the pIC50 read?
The pIC50 was greater than 7.00.

With `COc1cc2nccc(Oc3ccc4c(C(=O)Nc5cc(C(C)(C)C)on5)cccc4c3F)c2cc1OC` [Example 467, 6-((6,7-bis(methoxy)-4-quinolinyl)oxy)-N-(5-(1,1-dimethylethyl)-3-isoxazolyl)-5-fluoro-1-naphthalenecarboxamide] as the compound, how does the pIC50 read?
Its pIC50 is greater than 7.00.

With `COc1cc2c(Oc3ccc4c(C(=O)Nc5cccc(C(F)(F)F)c5)cccc4c3)ccnc2cc1OCCCN1CCOCC1` [Example 314, 6-((6-(methoxy)-7-((3-(4-morpholinyl)propyl)oxy)-4-quinolinyl)oxy)-N-(3-(trifluoromethyl)phenyl)-1-naphthalenecarboxamide] as the compound, how does the pIC50 read?
The pIC50 was greater than 7.00.

With `COc1ccc(C(C)(C)C)cc1NC(=O)c1cccc2cc(Oc3ccnc4cc(OCCCN5CCOCC5)c(OC)cc34)ccc12` [Example 342, N-(5-(1,1-dimethylethyl)-2-(methoxy)phenyl)-6-((6-(methoxy)-7-((3-(4-morpholinyl)propyl)oxy)-4-quinolinyl)oxy)-1-naphthalenecarboxamide] as the compound, how does the pIC50 read?
The pIC50 was greater than 7.00.

With `COc1cc2nccc(Oc3ccc4c(C(=O)Nc5ncc(C)s5)cccc4c3)c2cc1OC` [Example 289, 6-((6,7-bis(methoxy)-4-quinolinyl)oxy)-N-(5-methyl-1,3-thiazol-2-yl)-1-naphthalenecarboxamide] as the compound, how does the pIC50 read?
The pIC50 was greater than 7.00.

With `COc1cc2nccc(Oc3ccc4c(C(=O)Nc5cc(C(C)(C)C)on5)ccc(C)c4c3)c2cc1OC` [Example 541, 6-((6,7-bis(methoxy)-4-quinolinyl)oxy)-N-(5-(1,1-dimethylethyl)-3-isoxazolyl)-4-methyl-1-naphthalenecarboxamide] as the compound, how does the pIC50 read?
The pIC50 was greater than 7.00.

With `COc1cc2c(Oc3ccc4c(C(=O)Nc5cc(C(C)(C)C)on5)cccc4c3F)ccnc2cc1OCCCN1CCOCC1` [Example 611, N-(5-(1,1-dimethylethyl)-3-isoxazolyl)-5-fluoro-6-((6-(methoxy)-7-((3-(4-morpholinyl)propyl)oxy)-4-quinolinyl)oxy)-1-naphthalenecarboxamide] as the compound, how does the pIC50 read?
Its pIC50 is greater than 7.00.
